Results as given in PMC8761492 (Life Science Alliance, 2022).
Starred links: 1 amine or outer side, 2 acyl side, 3 side chain; linkers in the order of their positions; H or OH if unused. Positions of bridges follow the written chain, without caps; N, C: chain ends. Non-standard residues stand in square brackets, D forms with d. Residues, ends and D or L forms follow the SMILES beside them. *: point of attachment. X1 = CC[C@H](C)[C@@H](N[*:1])[C@@H](O)CC(=O)O[C@H](C(=O)[C@H](C)C(=O)[*:2])C(C)C; NMeY = CN[C@@H](Cc1ccc(O)cc1)C(=O)O; dNMeL = CN[C@H](CC(C)C)C(=O)O; Pyruvoyl = CC(=O)C(=O)*

What was measured:
SARS-CoV-2/WA1 = test: SARS-CoV-2 infectivity in HeLa-ACE2 cells (viral NP); assay type: cell-based; settings: Severe acute respiratory syndrome coronavirus 2, HeLa-ACE2, 48 h
[1] = Tissue distribution of total radioactivity after single IV bolus of [14C]plitidepsin; assay type: in vivo, Sprague–Dawley rats; settings: rat, 0.2 mg/kg i.v. bolus
Protocol: An in vivo distribution study was carried out in rats. PM140064 (14C1-Plitidepsin) was supplied by PharmaMar at a radiochemical purity of 95% or greater, with no single impurity 3% or greater. The study was conducted at Aptuit Srl ([54]).
24 male and 24 female Sprague–Dawley rats each received a single IV bolus administration of [14C] Plitidepsin at a target dose of 0.2 mg/kg. After administration, three animals per time-point (0.25, 1, 2, 4, 8, 24, 48, and 72 h post-dose) were exsanguinated from the abdominal aorta and blood retained. Actual times of bleeding were recorded. In addition to blood, the following tissues were collected: brain, eyeballs, heart, liver, lung, skeletal muscle (quadriceps), fat, kidneys, stomach, skin, small intestine, spleen, thyroid, lymph nodes, and testes or ovaries. At the end of the collection period animals were euthanized by CO2 asphyxiation and the carcasses were discarded. Additional animals were bled to obtain control blood/plasma and tissues.

COVID-19 = test: APLICOV-PC: mortality, ventilation, ICU admission and oxygen therapy; assay type: in vivo, human
Protocol: Secondary outcomes included change from baseline of viral load, as evaluated by quantitative PCR via central laboratory on nasopharyngeal exudate or sampled from the lower respiratory tract within 48 h before first administration of plitidepsin and on days 4, 7, 15, and 31, and the percentage of patients requiring oxygen therapy, noninvasive mechanical ventilation, invasive mechanical ventilation and/or intensive care unit admission, and the percentage of patients with a fatal outcome on days 7, 15, and 31.
Analysis for preliminary evidence of efficacy was performed on all patients who had efficacy assessments at baseline and at least one subsequent assessment during treatment.
In regards with subgroup analyses, safety and efficacy outcomes also were assessed by age-group (<65 versus ≥65 yr) and efficacy outcomes were assessed by disease severity at baseline. Safety outcomes were also assessed before and after the implementation of the protocol amendment.

SARS-CoV = assay type: cell-based; settings: Vero E6 cells; 50 nM; 48 hpi
[2] = Day 1 to Day 7, 1.5 mg (N = 14)
[3] = Day 1 to Day 7, 2.0 mg (N = 15)
[4] = Day 1 to Day 7, 2.5 mg (N = 15)
[5] = Day 1 to Day 31, 1.5 mg (N = 14)
[6] = Day 1 to Day 31, 2.0 mg (N = 15)
[7] = Day 1 to Day 31, 2.5 mg (N = 15)
[8] = Day 1 to Day 31, Total (N = 44)
[9] = Day 8 to Day 15, 1.5 mg (N = 14)
[10] = Day 8 to Day 15, 2.0 mg (N = 15)
[11] = Day 8 to Day 15, 2.5 mg (N = 15)
[12] = Day 8 to Day 15, Total (N = 44)
[13] = Day 16 to Day 31, 1.5 mg (N = 14)
[14] = Day 16 to Day 31, 2.0 mg (N = 15)
[15] = Day 16 to Day 31, 2.5 mg (N = 15)
[16] = Day 16 to Day 31, Total (N = 44)
[17] = day 1 to Day 7, Moderate (N=23)
[18] = day 1 to Day 15, Moderate (N=23)
[19] = day 1 to Day 31, Moderate (N=23)

CC[C@H](C)[C@H]1NC(=O)[C@@H](NC(=O)[C@@H](CC(C)C)N(C)C(=O)[C@@H]2CCCN2C(=O)C(C)=O)[C@@H](C)OC(=O)[C@H](Cc2ccc(OC)cc2)N(C)C(=O)[C@@H]2CCCN2C(=O)[C@H](CC(C)C)NC(=O)[C@@H](C)C(=O)[C@H](C(C)C)OC(=O)C[C@@H]1O [Plitidepsin] (Pyruvoyl-P[dNMeL]T[X1]LP[NMeY](Me); ester 3-C)
IC50 (SARS-CoV-2/WA1; read-out: Antiviral IC50): 0.201 nM | IC90 (SARS-CoV-2/WA1; read-out: Antiviral IC90): 0.881 nM | lung-blood (LBR) AUC ratio [1]: around 8 fold | Mortality from Day 1 to Day 31 (COVID-19; 1.5 mg (N = 14)): 1 (7.1) | Mortality from Day 1 to Day 31 (COVID-19; 2.5 mg (N = 15)): 1 (6.7) | Patients requiring invasive mechanical ventilation and/or intensive care unit admission (COVID-19; [2]): 2 (14.3) | Patients requiring noninvasive mechanical ventilation (COVID-19; [2]): 4 (28.6) | Patients requiring invasive mechanical ventilation and/or intensive care unit admission (COVID-19; [3]): 1 (6.7) | Patients requiring noninvasive mechanical ventilation (COVID-19; [3]): 0 | Patients requiring invasive mechanical ventilation and/or intensive care unit admission (COVID-19; [4]): 2 (13.3) | Patients requiring noninvasive mechanical ventilation (COVID-19; [4]): 1 (6.7) | Patients requiring invasive mechanical ventilation and/or intensive care unit admission (COVID-19; Day 1 to Day 7, Total (N = 44)): 5 (11.4) | Patients requiring noninvasive mechanical ventilation (COVID-19; Day 1 to Day 7, Total (N = 44)): 5 (11.4) | Patients requiring invasive mechanical ventilation and/or intensive care unit admission (COVID-19; [5]): 2 (14.3) | Patients requiring noninvasive mechanical ventilation (COVID-19; [5]): 5 (35.7) | Patients requiring oxygen therapy at (COVID-19; [5]): 12 (85.7) | Patients requiring invasive mechanical ventilation and/or intensive care unit admission (COVID-19; [6]): 1 (6.7) | Patients requiring noninvasive mechanical ventilation (COVID-19; [6]): 1 (6.7) | Patients requiring oxygen therapy at (COVID-19; [6]): 12 (80.0) | Patients requiring invasive mechanical ventilation and/or intensive care unit admission (COVID-19; [7]): 3 (20.0) | Patients requiring noninvasive mechanical ventilation (COVID-19; [7]): 2 (13.3) | Patients requiring oxygen therapy at (COVID-19; [7]): 11 (73.3) | Patients requiring invasive mechanical ventilation and/or intensive care unit admission (COVID-19; [8]): 6 (13.6) | Patients requiring noninvasive mechanical ventilation (COVID-19; [8]): 8 (18.2) | Patients requiring oxygen therapy at (COVID-19; [8]): 35 (79.5) | Patients requiring oxygen therapy at (COVID-19; Day 7, 1.5 mg (N=14)): 12 (85.7) | Patients requiring oxygen therapy at (COVID-19; Day 7, 2.0 mg (N = 15)): 12 (80.0) | Patients requiring oxygen therapy at (COVID-19; Day 7, 2.5 mg (N=15)): 11 (73.3) | Patients requiring oxygen therapy at (COVID-19; Day 7, Total (N=44)): 35 (79.5) | Patients requiring invasive mechanical ventilation and/or intensive care unit admission (COVID-19; [9]): 1 (7.1) | Patients requiring noninvasive mechanical ventilation (COVID-19; [9]): 3 (21.4) | Patients requiring invasive mechanical ventilation and/or intensive care unit admission (COVID-19; [10]): 1 (6.7) | Patients requiring noninvasive mechanical ventilation (COVID-19; [10]): 0 | Patients requiring invasive mechanical ventilation and/or intensive care unit admission (COVID-19; [11]): 1 (6.7) | Patients requiring noninvasive mechanical ventilation (COVID-19; [11]): 2 (13.3) | Patients requiring invasive mechanical ventilation and/or intensive care unit admission (COVID-19; [12]): 3 (6.8) | Patients requiring noninvasive mechanical ventilation (COVID-19; [12]): 5 (11.4) | Patients requiring oxygen therapy at (COVID-19; Day 15, 1.5 mg (N=14)): 4 (28.6) | Patients requiring oxygen therapy at (COVID-19; Day 15, 2.0 mg (N = 15)): 1 (6.7) | Patients requiring oxygen therapy at (COVID-19; Day 15, 2.5 mg (N=15)): 4 (26.7) | Patients requiring oxygen therapy at (COVID-19; Day 15, Total (N=44)): 9 (20.5) | Patients requiring invasive mechanical ventilation and/or intensive care unit admission (COVID-19; [13]): 1 (7.1) | Patients requiring noninvasive mechanical ventilation (COVID-19; [13]): 1 (7.1) | Patients requiring invasive mechanical ventilation and/or intensive care unit admission (COVID-19; [14]): 1 (6.7) | Patients requiring noninvasive mechanical ventilation (COVID-19; [14]): 1 (6.7) | Patients requiring invasive mechanical ventilation and/or intensive care unit admission (COVID-19; [15]): 1 (6.7) | Patients requiring noninvasive mechanical ventilation (COVID-19; [15]): 1 (6.7) | Patients requiring invasive mechanical ventilation and/or intensive care unit admission (COVID-19; [16]): 3 (6.8) | Patients requiring noninvasive mechanical ventilation (COVID-19; [16]): 3 (6.8) | Patients requiring oxygen therapy at (COVID-19; Day 31, 1.5 mg (N=14)): 0 | Patients requiring oxygen therapy at (COVID-19; Day 31, 2.0 mg (N = 15)): 2 (13.3) | Patients requiring oxygen therapy at (COVID-19; Day 31, 2.5 mg (N=15)): 1 (6.7) | Patients requiring oxygen therapy at (COVID-19; Day 31, Total (N=44)): 3 (6.8) | Mortality from Day 1 to Day 31 (COVID-19; Total (N = 44)): 2 (4.5) | Patients requiring oxygen therapy (low flow) at (COVID-19; day 1 to Day 7, Mild (N=6)): 33.3% | Patients requiring oxygen therapy at (COVID-19; day 1 to Day 7, Mild (N=6)): 33.3% | Patients requiring non-invasive mechanical ventilation at (COVID-19; [17]): 4.3% | Patients requiring oxygen therapy (high flow) at (COVID-19; [17]): 4.3% | Patients requiring oxygen therapy (low flow) at (COVID-19; [17]): 78.3% | Patients requiring oxygen therapy at (COVID-19; [17]): 78.3% | Patients requiring ICU admission at (COVID-19; day 1 to Day 7, Severe (N=15)): 33.3% | Patients requiring invasive mechanical ventilation and/or ICU admission at (COVID-19; day 1 to Day 7, Severe (N=15)): 33.3% | Patients requiring non-invasive mechanical ventilation at (COVID-19; day 1 to Day 7, Severe (N=15)): 26.7% | Patients requiring oxygen therapy (high flow) at (COVID-19; day 1 to Day 7, Severe (N=15)): 26.7% | Patients requiring oxygen therapy (low flow) at (COVID-19; day 1 to Day 7, Severe (N=15)): 100% | Patients requiring oxygen therapy at (COVID-19; day 1 to Day 7, Severe (N=15)): 100% | Patients requiring oxygen therapy (low flow) at (COVID-19; day 1 to Day 15, Mild (N=6)): 33.3% | Patients requiring oxygen therapy at (COVID-19; day 1 to Day 15, Mild (N=6)): 33.3% | Patients requiring non-invasive mechanical ventilation at (COVID-19; [18]): 4.3% | Patients requiring oxygen therapy (high flow) at (COVID-19; [18]): 4.3% | Patients requiring oxygen therapy (low flow) at (COVID-19; [18]): 78.3% | Patients requiring oxygen therapy at (COVID-19; [18]): 78.3% | Patients requiring ICU admission at (COVID-19; day 1 to Day 15, Severe (N=15)): 40% | Patients requiring invasive mechanical ventilation and/or ICU admission at (COVID-19; day 1 to Day 15, Severe (N=15)): 40% | Patients requiring invasive mechanical ventilation at (COVID-19; day 1 to Day 15, Severe (N=15)): 13.3% | Patients requiring non-invasive mechanical ventilation at (COVID-19; day 1 to Day 15, Severe (N=15)): 40% | Patients requiring oxygen therapy (high flow) at (COVID-19; day 1 to Day 15, Severe (N=15)): 40% | Patients requiring oxygen therapy (low flow) at (COVID-19; day 1 to Day 15, Severe (N=15)): 100% | Patients requiring oxygen therapy at (COVID-19; day 1 to Day 15, Severe (N=15)): 100% | Patients requiring oxygen therapy (low flow) at (COVID-19; day 1 to Day 31, Mild (N=6)): 33.3% | Patients requiring oxygen therapy at (COVID-19; day 1 to Day 31, Mild (N=6)): 33.3% | Patients requiring non-invasive mechanical ventilation at (COVID-19; [19]): 4.3% | Patients requiring oxygen therapy (high flow) at (COVID-19; [19]): 4.3% | Patients requiring oxygen therapy (low flow) at (COVID-19; [19]): 78.3% | Patients requiring oxygen therapy at (COVID-19; [19]): 78.3% | Deaths at (COVID-19; day 1 to Day 31, Severe (N=15)): 13.3% | Patients requiring ICU admission at (COVID-19; day 1 to Day 31, Severe (N=15)): 40% | Patients requiring invasive mechanical ventilation and/or ICU admission at (COVID-19; day 1 to Day 31, Severe (N=15)): 40% | Patients requiring invasive mechanical ventilation at (COVID-19; day 1 to Day 31, Severe (N=15)): 20% | Patients requiring non-invasive mechanical ventilation at (COVID-19; day 1 to Day 31, Severe (N=15)): 46.7% | Patients requiring oxygen therapy (high flow) at (COVID-19; day 1 to Day 31, Severe (N=15)): 40% | Patients requiring oxygen therapy (low flow) at (COVID-19; day 1 to Day 31, Severe (N=15)): 100% | Patients requiring oxygen therapy at (COVID-19; day 1 to Day 31, Severe (N=15)): 100% | patients requiring nonmechanical invasive ventilation (COVID-19; moderate disease, one patient): 4.3% | patients requiring intensive care support (COVID-19; severe disease at baseline, 6 of 15): 40% | patients requiring nonmechanical invasive ventilation (COVID-19; severe disease, seven patients): 46.7% | patients requiring intensive care support (COVID-19; six of 44 patients): 13.6% | decrease in SARS-CoV genomic RNA accumulation (SARS-CoV): 10^4 fold
